Among the data in ChEMBL document CHEMBL4316596, “Antimicrobial Peptides with High Proteolytic Resistance for Combating Gram-Negative Bacteria” (J Med Chem, 2019) are Ratio and Activity values, retold here.

One experiment relates to Pseudomonas aeruginosa. The experiment is described as follows: Ratio of MBC against Pseudomonas aeruginosa ATCC 27853 after 50 passages to MBC against Pseudomonas aeruginosa ATCC 27853. It is filed as functional.
Another experiment relates to Escherichia coli. The experiment is described as follows: Induction of membrane disruption in Escherichia coli ATCC 25922 assessed as membrane content leakage at MBC after 1 hr by SEM analysis. It is filed as functional, organism-based.

Calls of active or inactive are those of the source. No cut-off for these calls is given here.

With `CC[C@H](C)[C@H](NC(=O)CN)C(=O)NCC(=O)N[C@@H](C)C(=O)N[C@H](C(=O)N[C@@H](CC(C)C)C(=O)N[C@@H](CCCCN)C(=O)N[C@H](C(=O)N[C@@H](CC(C)C)C(=O)N[C@H](C(=O)N[C@H](C(=O)NCC(=O)N[C@@H](CC(C)C)C(=O)N1CCC[C@H]1C(=O)N[C@@H](C)C(=O)N[C@@H](CC(C)C)C(=O)N[C@H](C(=O)N[C@@H](CO)C(=O)N[C@@H](Cc1c[nH]c2ccccc12)C(=O)N[C@H](C(=O)N[C@@H](CCCCN)C(=O)N[C@@H](CCCNC(=N)N)C(=O)N[C@@H](CCCCN)C(=O)N[C@@H](CCCNC(=N)N)C(=O)N[C@@H](CCC(N)=O)C(=O)N[C@@H](CCC(N)=O)C(N)=O)[C@@H](C)CC)[C@@H](C)CC)[C@@H](C)O)[C@@H](C)O)C(C)C)C(C)C` [MELITTIN], the Ratio with Pseudomonas aeruginosa was 256.

For H-IRPIIRPIIRPIIRPIIRPIIRPIIRPI-NH2, in the experiment with Escherichia coli, the result was Active.
